In patent US7880007B2, “Bicyclic substituted phenyl piperidine modulators of muscarinic receptors” (Vertex Pharmaceuticals Incorporated, priority 2004, dated 2011):

Experiments:
Format in all cases: cell-based
M3 muscarinic receptor = target: T1, M3 muscarinic receptor (Homo sapiens, UniProt P20309); assay: Functional mobilization of intracellular calcium (FLIPR), M3-CHO cells; conditions: for M3 Activity: M3-CHO cells, calcium mobilization (FLIPR)
T1 construct: expressed in transfected cells; host or cells: CHO (M3-CHO)
T1 sequence (P20309 whole entry): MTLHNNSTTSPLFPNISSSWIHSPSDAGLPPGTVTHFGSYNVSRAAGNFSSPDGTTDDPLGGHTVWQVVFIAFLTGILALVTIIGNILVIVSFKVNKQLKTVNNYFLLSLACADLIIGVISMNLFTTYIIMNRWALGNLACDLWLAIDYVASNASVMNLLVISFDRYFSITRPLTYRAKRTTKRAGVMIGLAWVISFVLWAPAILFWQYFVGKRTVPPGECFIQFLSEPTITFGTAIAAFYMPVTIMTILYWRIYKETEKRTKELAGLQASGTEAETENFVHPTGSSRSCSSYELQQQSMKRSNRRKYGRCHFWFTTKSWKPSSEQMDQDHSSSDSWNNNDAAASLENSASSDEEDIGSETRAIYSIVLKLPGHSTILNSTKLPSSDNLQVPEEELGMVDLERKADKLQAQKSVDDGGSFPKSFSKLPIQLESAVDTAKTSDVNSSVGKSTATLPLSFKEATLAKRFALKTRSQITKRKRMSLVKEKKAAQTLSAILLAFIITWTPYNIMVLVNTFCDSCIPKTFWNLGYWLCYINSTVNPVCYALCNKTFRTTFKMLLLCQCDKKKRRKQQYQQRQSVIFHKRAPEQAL
Method in brief: (§1)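 CHO cells expressing human M1–M4 receptors loaded with Fluo-3 AM or Calcium 3 dye (1 mM probenecid, pH 7.4); 0.5% DMSO final. Agonist mode: compound added directly; antagonist mode: 15 min pre-incubation or co-application, then carbachol at EC80. Fluorescence read 60 s on FLIPR; efficacy relative to carbachol maximum.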

M2 muscarinic receptor = target: T2, M2 muscarinic receptor (Homo sapiens, UniProt P08172); assay: Functional mobilization of intracellular calcium (FLIPR), M2-CHO cells; conditions: for M2 Activity: M2-CHO cells, calcium mobilization (FLIPR)
T2 construct: expressed in transfected cells; host or cells: CHO (M2-CHO)
T2 sequence (P08172 1-466): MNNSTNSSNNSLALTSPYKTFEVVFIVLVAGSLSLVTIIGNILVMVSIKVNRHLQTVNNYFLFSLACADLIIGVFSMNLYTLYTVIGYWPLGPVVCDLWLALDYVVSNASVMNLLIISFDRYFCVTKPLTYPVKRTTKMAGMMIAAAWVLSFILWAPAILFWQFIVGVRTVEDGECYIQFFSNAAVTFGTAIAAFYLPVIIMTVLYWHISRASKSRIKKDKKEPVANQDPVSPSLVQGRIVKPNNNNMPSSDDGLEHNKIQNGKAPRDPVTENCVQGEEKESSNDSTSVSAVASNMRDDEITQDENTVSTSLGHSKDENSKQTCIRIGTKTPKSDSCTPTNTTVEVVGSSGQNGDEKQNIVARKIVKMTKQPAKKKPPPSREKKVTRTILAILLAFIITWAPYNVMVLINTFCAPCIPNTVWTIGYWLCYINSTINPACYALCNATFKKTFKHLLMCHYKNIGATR
Method in brief: as §1

M4 muscarinic receptor = target: T3, M4 muscarinic receptor (Homo sapiens, UniProt P08173); assay: Functional mobilization of intracellular calcium (FLIPR), M4-CHO cells; conditions: for M4 Activity: M4-CHO cells, calcium mobilization (FLIPR)
T3 construct: expressed in transfected cells; host or cells: CHO (M4-CHO)
T3 sequence (P08173 1-479): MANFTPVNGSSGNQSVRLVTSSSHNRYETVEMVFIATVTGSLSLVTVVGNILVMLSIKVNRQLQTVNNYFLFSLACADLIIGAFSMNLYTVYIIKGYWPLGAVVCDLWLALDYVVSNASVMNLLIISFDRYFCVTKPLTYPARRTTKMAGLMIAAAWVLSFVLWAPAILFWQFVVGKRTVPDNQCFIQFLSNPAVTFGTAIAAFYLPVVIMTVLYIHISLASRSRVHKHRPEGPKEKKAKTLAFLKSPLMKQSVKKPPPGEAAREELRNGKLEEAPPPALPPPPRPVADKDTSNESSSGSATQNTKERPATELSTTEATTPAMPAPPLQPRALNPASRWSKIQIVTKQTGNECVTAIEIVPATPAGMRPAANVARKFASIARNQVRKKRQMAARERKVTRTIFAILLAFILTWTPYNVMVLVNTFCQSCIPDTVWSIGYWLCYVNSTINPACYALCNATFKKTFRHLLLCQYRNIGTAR
Method in brief: as §1

M1 muscarinic receptor = target: T4, M1 muscarinic receptor (Homo sapiens, UniProt P11229); assay: Functional mobilization of intracellular calcium (FLIPR), M1-CHO cells; conditions: for M1 Activity: M1-CHO cells, calcium mobilization (FLIPR)
T4 construct: expressed in transfected cells; host or cells: CHO (M1-CHO)
T4 sequence (P11229 1-460): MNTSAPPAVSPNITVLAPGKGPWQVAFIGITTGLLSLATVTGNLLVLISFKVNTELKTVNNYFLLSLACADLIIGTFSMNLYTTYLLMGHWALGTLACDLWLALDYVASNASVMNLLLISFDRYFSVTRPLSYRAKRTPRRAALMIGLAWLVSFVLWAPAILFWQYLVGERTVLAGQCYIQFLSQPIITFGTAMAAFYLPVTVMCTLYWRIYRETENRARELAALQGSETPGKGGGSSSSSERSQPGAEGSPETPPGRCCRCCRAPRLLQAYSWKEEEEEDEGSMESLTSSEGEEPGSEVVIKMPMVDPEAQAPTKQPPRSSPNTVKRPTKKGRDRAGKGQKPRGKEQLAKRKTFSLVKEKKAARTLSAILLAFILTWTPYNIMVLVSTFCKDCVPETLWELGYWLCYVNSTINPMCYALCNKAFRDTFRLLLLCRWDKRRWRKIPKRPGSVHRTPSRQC
Method in brief: as §1

[1] = 100% efficacy = maximum response obtained with the Carbachol control
[2] = 100% efficacy is the maximum response obtained with the Carbachol control

Row | SMILES | Emax (M3 muscarinic receptor; [1]) [%] | M3 Activity (M3 muscarinic receptor) | Emax (M2 muscarinic receptor; [1]) [%] | M2 Activity (M2 muscarinic receptor) | Emax (M4 muscarinic receptor; [1]) [%] | M4 Activity (M4 muscarinic receptor) | Emax (M1 muscarinic receptor; [1]) [%] | M1 Activity (M1 muscarinic receptor) | Emax (M3 muscarinic receptor; [2]) [%] | Emax (M2 muscarinic receptor; [2]) [%] | Emax (M4 muscarinic receptor; [2]) [%] | Emax (M1 muscarinic receptor; [2]) [%] | M3 Efficacy (M3 muscarinic receptor; [1]) | M2 Efficacy (M2 muscarinic receptor; [1]) | M4 Efficacy (M4 muscarinic receptor; [1]) | M1 Efficacy (M1 muscarinic receptor; [1])
1 | CCC(=O)COc1ccccc1C1CCN([C@H]2C[C@H]3CC[C@H]2C3)CC1 [Compound 19] | < 25 | + (activity was measured to be greater than 5.0 μM) | < 25 | + (activity was measured to be greater than 5.0 μM) | 25 to 100 | +++ (activity was measured to be less than 1.0 μM) | 25 to 100 | ++ (activity was measured to be from 1.0 μM to 5.0 μM) | – | – | – | – | – | – | – | –
2 | COc1ccc(-c2ccoc2)cc1C1CCN([C@@H]2C[C@H]3CC[C@H]2C3)CC1 [Compound 237] | < 25 | + (activity was measured to be greater than 5.0 μM) | < 25 | + (activity was measured to be greater than 5.0 μM) | 25 to 100 | ++ (activity was measured to be from 1.0 μM to 5.0 μM) | < 25 | + (activity was measured to be greater than 5.0 μM) | – | – | – | – | – | – | – | –
3 | C=Cc1ccc(OC)c(C2CCN([C@@H]3C[C@H]4CC[C@H]3C4)CC2)c1 [Compound 404] | – | + (activity was measured to be greater than 5.0 μM) | – | + (activity was measured to be greater than 5.0 μM) | – | +++ (activity was measured to be less than 1.0 μM) | – | ++ (activity was measured to be from 1.0 μM to 5.0 μM) | < 25 | < 25 | 25 to 100 | 25 to 100 | – | – | – | –
4 | COc1ccc(F)cc1C1CCN(C2CC3CCC2C3)CC1 (stereo not shown) [Compound 371] | < 25 | + (activity was measured to be greater than 5.0 μM) | 25 to 100 | ++ (activity was measured to be from 1.0 μM to 5.0 μM) | 25 to 100 | +++ (activity was measured to be less than 1.0 μM) | 25 to 100 | ++ (activity was measured to be from 1.0 μM to 5.0 μM) | – | – | – | – | – | – | – | –
5 | COc1ccc(-c2ccccc2Cl)cc1C1CCN([C@H]2C[C@H]3CC[C@H]2C3)CC1 [Compound 178] | < 25 | + (activity was measured to be greater than 5.0 μM) | < 25 | + (activity was measured to be greater than 5.0 μM) | 25 to 100 | + (activity was measured to be greater than 5.0 μM) | < 25 | + (activity was measured to be greater than 5.0 μM) | – | – | – | – | – | – | – | –
6 | COc1ccc(C#CC2(O)CCCC2)cc1C1CCN([C@H]2C[C@H]3CC[C@H]2C3)CC1 [Compound 287] | < 25 | + (activity was measured to be greater than 5.0 μM) | < 25 | + (activity was measured to be greater than 5.0 μM) | 25 to 100 | +++ (activity was measured to be less than 1.0 μM) | < 25 | + (activity was measured to be greater than 5.0 μM) | – | – | – | – | – | – | – | –
7 | Clc1ccccc1-c1ccccc1C1CCN([C@H]2C[C@H]3CC[C@H]2C3)CC1 [Compound 88] | < 25 | + (activity was measured to be greater than 5.0 μM) | < 25 | + (activity was measured to be greater than 5.0 μM) | 25 to 100 | ++ (activity was measured to be from 1.0 μM to 5.0 μM) | < 25 | + (activity was measured to be greater than 5.0 μM) | – | – | – | – | – | – | – | –
8 | CCCON=C1CCC(N2CCC(c3cc(Cl)ccc3OC)CC2)CC1 (stereo not shown) [Compound 362] | – | + (activity was measured to be greater than 5.0 μM) | – | ++ (activity was measured to be from 1.0 μM to 5.0 μM) | – | +++ (activity was measured to be less than 1.0 μM) | – | +++ (activity was measured to be less than 1.0 μM) | – | – | – | – | + (efficacy was calculated to be less than 25%) | ++ (efficacy was calculated to be from 100% to 25%) | ++ (efficacy was calculated to be from 100% to 25%) | ++ (efficacy was calculated to be from 100% to 25%)
9 | O=C(NCc1cccc(C2CCN(C3C[C@H]4CC[C@H]3C4)CC2)c1)C1CC1 (stereo partly shown) [Compound 391] | – | + (activity was measured to be greater than 5.0 μM) | – | + (activity was measured to be greater than 5.0 μM) | – | + (activity was measured to be greater than 5.0 μM) | – | + (activity was measured to be greater than 5.0 μM) | < 25 | < 25 | < 25 | < 25 | – | – | – | –
10 | COc1ccc(-c2ccc(C#N)cc2)cc1C1CCN([C@@H]2C[C@H]3CC[C@H]2C3)CC1 [Compound 383] | – | + (activity was measured to be greater than 5.0 μM) | – | + (activity was measured to be greater than 5.0 μM) | – | ++ (activity was measured to be from 1.0 μM to 5.0 μM) | – | + (activity was measured to be greater than 5.0 μM) | < 25 | < 25 | 25 to 100 | 25 to 100 | – | – | – | –
11 | COc1ccc(-c2ccc(S(C)(=O)=O)cc2)cc1C1CCN(C2CCCC2)CC1 [Compound 275] | < 25 | + (activity was measured to be greater than 5.0 μM) | 25 to 100 | + (activity was measured to be greater than 5.0 μM) | 25 to 100 | ++ (activity was measured to be from 1.0 μM to 5.0 μM) | 25 to 100 | + (activity was measured to be greater than 5.0 μM) | – | – | – | – | – | – | – | –
